Data published in PubChem BioAssay AID634 (Vanderbilt High Throughput Screening Facility, 2007).
Calls of active or inactive are those of the source. No rule for the calls is given here.

Target: Voltage-gated potassium channel subunit beta-2 (Rattus norvegicus) (UniProt P62483)
Assay: KvBeta positive modulator confirmation, biochemical (AID 634)
Settings: Rat Kvbeta2 enzymatic assay, slope read-out; hits give low values

Sequence of Voltage-gated potassium channel subunit beta-2 (Rattus norvegicus) (P62483 whole entry, looked up): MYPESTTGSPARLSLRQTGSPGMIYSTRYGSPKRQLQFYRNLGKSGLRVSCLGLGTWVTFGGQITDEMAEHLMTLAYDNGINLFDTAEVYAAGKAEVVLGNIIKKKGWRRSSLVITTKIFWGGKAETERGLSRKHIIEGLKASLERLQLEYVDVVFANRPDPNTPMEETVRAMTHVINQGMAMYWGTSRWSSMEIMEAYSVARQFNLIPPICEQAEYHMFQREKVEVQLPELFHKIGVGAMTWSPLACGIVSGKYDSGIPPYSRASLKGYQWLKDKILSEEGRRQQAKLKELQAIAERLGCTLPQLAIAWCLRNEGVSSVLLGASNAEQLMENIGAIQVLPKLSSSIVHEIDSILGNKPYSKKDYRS

For Cn1c(SCC(=O)Nc2ccc3c(c2)oc2ccccc23)nnc1-c1ccccc1, which slope is on record?
The slope was 0.119 (inactive).

How did the slope turn out when CN1C(=S)SC(C)(NO)C1(C)C (configuration not stated) was run?
The slope was -0.536.

COc1cccc(Oc2ccc(N)cc2)c1 was tested. Which slope did it give?
The slope was 0.062 (inactive).

For CCN(CC)CCCn1c(=S)[nH]c2cc(Cl)ccc2c1=O, which slope is on record?
Its slope is 0.133 (inactive).

For O=C(NCc1cccs1)C(Cc1ccccc1)NS(=O)(=O)c1cccs1 (configuration not stated), which slope is on record?
The slope was 0.0568 (inactive).

For CC(c1ccco1)N(C(=O)c1ccc(S(=O)(=O)N2CCCCC2)cc1)c1ccccn1 (configuration not stated), which slope is on record?
Its slope is 0.0766 (inactive).

CCOc1ccccc1Nc1nc2ccccc2[nH]1 was tested. Which slope did it give?
Its slope is 0.0352 (inactive).

For O=c1c2ccccc2[se]n1-c1ccccc1, which slope is on record?
The slope was -0.798.

For CCn1cc(C(=O)Nc2cc3c(cc2NC(C)=O)OCCO3)c(=O)c2ccc(C)nc21, which slope is on record?
The slope was 0.112 (inactive).

Cc1ccc2c(c1)[C@@H]1CN(C)CC[C@@H]1N2C(=O)Nc1cccc(C(F)(F)F)c1 was tested. Which slope did it give?
Its slope is -0.0275 (inactive).

C=CCn1c(SCC(=O)NCC2CCCO2)nc2scc(-c3ccco3)c2c1=O (configuration not stated) was tested. Which slope did it give?
The slope was 0.0642 (inactive).

Which slope does the source give for CC(O)CNc1nc2c(c(=O)n(C)c(=O)n2C)n1CCc1ccccc1 (configuration not stated) here?
The slope was 0.0661 (inactive).

Which slope does the source give for CC(=O)Oc1ccc2c(C)cc(=O)[nH]c2c1 here?
Its slope is 0.0957 (inactive).

With COc1ccccc1C1/C(=C(/O)c2ccc(OC(C)C)cc2)C(=O)C(=O)N1c1cc(C)on1 (configuration not stated) as the molecule, how does the slope read?
Its slope is 0.0306 (inactive).

CCOC(=O)CNC(=O)Nc1ccccc1C(=O)OC was tested. Which slope did it give?
Its slope is 0.092 (inactive).

How did the slope turn out when CCOC(=O)C1=C(N)OC(C)=C(C(=O)OCCOC)C12C(=O)Nc1ccccc12 (configuration not stated) was run?
Its slope is 0.0877 (inactive).

How did the slope turn out when O=C(NCCC1=CCCCC1)N[C@@H](Cc1ccccc1)C(=O)O was run?
The slope was 0.0842 (inactive).

With NS(=O)(=O)c1cc2c(cc1Cl)NC=NS2(=O)=O as the molecule, how does the slope read?
The slope was 0.0676 (inactive).

For O=C(C1=C(O)C(=O)N(CCCN2CCOCC2)C1c1ccccn1)c1cc2ccccc2o1 (configuration not stated), which slope is on record?
The slope was 0.134 (inactive).

Which slope does the source give for CCCCCC#CCC#CCC#CCC#CCCCC(=O)O here?
The slope was -0.0283 (inactive).

How did the slope turn out when CCCCOc1ccc(-c2nnn(C(C)(C)C(=O)OC)n2)cc1 was run?
The slope was 0.0535 (inactive).

Which slope does the source give for Cc1ccc(N2C(=O)C3ON(c4ccccc4)C(c4ccncc4)C3C2=O)cc1 (configuration not stated) here?
Its slope is 0.0514 (inactive).
